Source: US11590139B2, “Substituted aminopurine compounds, compositions thereof, and methods of treatment therewith” (Signal Pharmaceuticals, LLC, priority 2014, dated 2023)
pIC50: −log10 of the molar value.

Tested on: Lox-IMVI melanoma cell line
Experiment: Lox-IMVI anti-proliferative assay (growth inhibition, Cell Titer-Glo)
Type: cell-based, human
Settings: Homo sapiens; IC50 activity level in the cell-based Lox-IMVI anti-proliferative assay; read-out: Activity
Outline: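 Growth inhibition is assessed over 72 h in RPMI + 10% FBS at 0.2% DMSO, with ATP-based luminescence used as the viability measure. IC50 is fitted from normalized dose-response data.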

pIC50 | SMILES
< 6.00 | NC(=O)[C@H]1CC[C@@H](n2c(Nc3ccc(Cl)c(F)c3F)nc3cnc(NC4CC5(COC5)C4)nc32)CC1 [Example 194, (1s,4s)-4-(2-(2-oxaspiro[3.3]heptan-6-ylamino)-8-(4-chloro-2,3-difluorophenylamino)-9H-purin-9-yl)cyclohexanecarboxamide]
< 6.00 | NC(=O)[C@H]1CC[C@@H](n2c(Nc3c(Cl)cc(F)cc3Cl)nc3cnc(NC4CC(F)(F)C4)nc32)CC1 [Example 231, (1s,4s)-4-(8-(2,6-dichloro-4-fluorophenylamino)-2-(3,3-difluorocyclobutylamino)-9H-purin-9-yl)cyclohexanecarboxamide]
6.00 to 6.30 | NC(=O)[C@H]1CC[C@@H](n2c(Nc3c(Cl)cc(F)cc3Cl)nc3cnc(N[C@H]4CCOC4)nc32)CC1 [Example 243, (1R,4s)-4-(8-(2,6-dichloro-4-fluorophenylamino)-2-((S)-tetrahydrofuran-3-ylamino)-9H-purin-9-yl)cyclohexanecarboxamide]
< 6.00 | NC(=O)[C@H]1CC[C@@H](n2c(Nc3c(F)cc(Cl)cc3Cl)nc3cnc(N[C@@H]4COC[C@H]4O)nc32)CC1 [Example 314, (1S,4s)-4-(8-(2,4-dichloro-6-fluorophenylamino)-2-((3R,4S)-4-hydroxytetrahydrofuran-3-ylamino)-9H-purin-9-yl)cyclohexanecarboxamide]

Second part, the molecule before the results:

SMILES | pIC50
CC(C)Nc1ncc2nc(Nc3c(F)ccc(F)c3F)n([C@H]3CC[C@@H](C(N)=O)CC3)c2n1 [Example 98, (1s,4s)-4-(2-(isopropylamino)-8-(2,3,6-trifluorophenylamino)-9H-purin-9-yl)cyclohexanecarboxamide] | < 6.00
NC(=O)[C@H]1CC[C@@H](n2c(Nc3ccc(Cl)c(F)c3F)nc3cnc(N[C@H]4COC[C@@H]4O)nc32)CC1 [Example 317, (1R,4s)-4-(8-(4-chloro-2,3-difluorophenylamino)-2-((3S,4R)-4-hydroxytetrahydrofuran-3-ylamino)-9H-purin-9-yl)cyclohexanecarboxamide] | 6.00 to 6.30
NC(=O)[C@H]1CC[C@@H](n2c(Nc3c(F)cccc3F)nc3cnc(N[C@@H]4CCOC[C@H]4F)nc32)CC1 [Example 275, (1S,4s)-4-(8-(2,6-difluorophenylamino)-2-((3S,4R)-3-fluorotetrahydro-2H-pyran-4-ylamino)-9H-purin-9-yl)cyclohexanecarboxamide] | 6.30 to 6.60

Same assay, conditions: Homo sapiens; Lox-IMVI anti-proliferative assay, IC50 activity level; read-out: Activity

pIC50 | SMILES
< 6.00 | CC[C@@H](CO)Nc1ncc2nc(Nc3c(F)cc(C#N)cc3F)n([C@H]3CC[C@@H](C(N)=O)CC3)c2n1 [Example 402, (1R,4s)-4-(8-(4-cyano-2,6-difluorophenylamino)-2-((S)-1-hydroxybutan-2-ylamino)-9H-purin-9-yl)cyclohexanecarboxamide]
< 6.00 | NC(=O)[C@H]1CC[C@@H](n2c(Nc3c(F)cccc3Cl)nc3cnc(N[C@@H]4CCCC[C@H](O)C4)nc32)CC1 [Example 436, (1S,4s)-4-(8-(2-chloro-6-fluorophenylamino)-2-((1R,3S)-3-hydroxycycloheptylamino)-9H-purin-9-yl)cyclohexanecarboxamide]

Same assay, conditions: Homo sapiens; Lox-IMVI melanoma cell line, anti-proliferative assay; read-out: Activity (IC50 activity level)

pIC50 | SMILES
< 6.00 | CC(=O)N1CCC[C@@H](Nc2ncc3nc(Nc4c(Cl)cc(Cl)cc4Cl)n([C@H]4CC[C@@H](C(N)=O)CC4)c3n2)C1 [Example 710, (1S,4s)-4-(2-((R)-1-acetylpiperidin-3-ylamino)-8-(2,4,6-trichlorophenylamino)-9H-purin-9-yl)cyclohexanecarboxamide]
< 6.00 | CC(C)N1CCC[C@@H](Nc2ncc3nc(Nc4c(Cl)cc(C#N)cc4Cl)n([C@H]4CC[C@@H](C(N)=O)CC4)c3n2)C1 [Example 739, (1S,4s)-4-(8-(2,6-dichloro-4-cyanophenylamino)-2-((R)-1-isopropylpiperidin-3-ylamino)-9H-purin-9-yl)cyclohexanecarboxamide]
6.00 to 6.30 | NC(=O)[C@H]1CC[C@@H](n2c(Nc3c(Cl)cc(Cl)cc3Cl)nc3cnc(N[C@@H]4CCCN(C(=O)Nc5ccccc5)C4)nc32)CC1 [Example 779, (R)-3-(9-((1s,4S)-4-carbamoylcyclohexyl)-8-(2,4,6-trichlorophenylamino)-9H-purin-2-ylamino)-N-phenylpiperidine-1-carboxamide]
